Patent US11925650B2, “Antibacterial chemical compound, its manufacturing method and its use thereof” (National Taiwan University, priority 2022, dated 2024)
Where two headings read alike, the source gives them in different places.

Key:
S. Typhimurium 14028 = assay: Anti-intracellular Salmonella activity in infected RAW264.7 cells (HCA); type: cell-based, Salmonella Typhimurium; conditions: for Selectivity ratio (IC50/EC50): IC50 RAW264.7 / EC50 S. Typhimurium 14028
RAW264.7 = assay: Cytotoxicity in RAW264.7 cells (HCA, MTT cell viability assay); type: cell-based
[1] = Salmonella enterica, TYPHIMURIUM, RAW264.7, read-out: EC50 (μM) S. Typhimurium 14028, intracellular Salmonella in infected RAW264.7 cells
[2] = Mus musculus, RAW264.7, read-out: IC50 (μM) RAW264.7
[3] = Salmonella enterica, TYPHIMURIUM, intracellular Salmonella in infected RAW264.7 cells, read-out: EC50 (μM) S. Typhimurium 14028
[4] = Mus musculus, cytotoxicity, RAW264.7 cells, read-out: IC50 (μM) RAW264.7

Compound | EC50 (S. Typhimurium 14028; intracellular Salmonella in infected RAW264.7 cells, read-out: EC50 (μM) S. Typhimurium 14028) | IC50 (RAW264.7; cytotoxicity, RAW264.7 cells, read-out: IC50 (μM) RAW264.7) | Selectivity ratio (IC50/EC50) (S. Typhimurium 14028) | EC50 (S. Typhimurium 14028; [1]) | IC50 (RAW264.7; [2]) | EC50 (S. Typhimurium 14028; [3]) | IC50 (RAW264.7; [4])
2-chloro-11-(3-(3,4-dichlorophenyl)propyl)dibenzo[b,f][1,4]oxazepine [SW15] | 31.1 µM | 82.7 µM |  |  |  |  | 
CN(C)CCNC1=Nc2ccccc2Oc2ccc(Cl)cc21 [SW1, N1-(2-chlorodibenzo[b,f][1,4]oxazepin-11-yl)-N2,N2-dimethylethane-1,2-diamine] |  |  | 9.5 | 3.6 µM | 34.6 µM |  | 
Clc1ccc2c(c1)C(NCCN1CCCC1)=Nc1ccccc1O2 [SW2, 2-chloro-N-(2-(pyrrolidin-1-yl)ethyl)dibenzo[b,f][1,4]oxazepin-11-amine] |  |  | 5.4 | 4.9 µM | 26.6 µM |  | 
Clc1ccc2c(c1)C(NCCN1CCCCC1)=Nc1ccccc1O2 [SW3, 2-chloro-N-(2-(piperidin-1-yl)ethyl)dibenzo[b,f][1,4]oxazepin-11-amine] |  |  | 5.1 | 4.3 µM | 22.2 µM |  | 
Clc1ccc2c(c1)C(NCCN1CCOCC1)=Nc1ccccc1O2 [SW4, 2-chloro-N-(2-morpholinoethyl)dibenzo[b,f][1,4]oxazepin-11-amine] |  |  | 2.6 | 32 µM | 84.7 µM |  | 
Clc1ccc2c(c1)C(NCCc1cccnc1)=Nc1ccccc1O2 [SW5, 2-chloro-N-(2-(pyridin-3-yl)ethyl)dibenzo[b,f][1,4]oxazepin-11-amine] |  |  | 1.9 | 38.2 µM | 74 µM |  | 
CN1CCCC1CCNC1=Nc2ccccc2Oc2ccc(Cl)cc21 (stereo not shown) [SW6, 2-chloro-N-(2-(1-methylpyrrolidin-2-yl)ethyl)dibenzo[b,f][1,4]oxazepin-11-amine] |  |  | 18.9 | 1.2 µM | 23 µM |  | 
Clc1ccc2c(c1)C(NCCc1ccccc1)=Nc1ccccc1O2 [SW7, 2-chloro-N-phenethyldibenzo[b,f][1,4]oxazepin-11-amine] |  |  | 2.7 | 21.2 µM | 56.3 µM |  | 
CCCCCNC1=Nc2ccccc2Oc2ccc(Cl)cc21 [SW8, 2-chloro-N-pentyldibenzo[b,f][1,4]oxazepin-11-amine] |  |  | 1.3 | 54.1 µM | 72.7 µM |  | 
Clc1ccc2c(c1)C(NCc1ccccc1)=Nc1ccccc1O2 [SW9, N-benzyl-2-chlorodibenzo[b,f][1,4]oxazepin-11-amine] |  |  | 3.1 | 19.7 µM | 60.8 µM |  | 
Clc1ccc2c(c1)C(NCC1CC1)=Nc1ccccc1O2 [SW11, 2-chloro-N-(cyclopropylmethyl)dibenzo[b,f][1,4]oxazepin-11-amine] |  |  | 1.7 | 44 µM | 74 µM |  | 
Oc1ccc(CCNC2=Nc3ccccc3Oc3ccc(Cl)cc32)cc1 [SW12, 4-(2-((2-chlorodibenzo[b,f][1,4]oxazepin-11-yl)amino)ethyl)phenol] |  |  | 1.6 | 33.5 µM | 52.1 µM |  | 
CCCNC1=Nc2ccccc2Oc2ccc(Cl)cc21 [SW13, 2-chloro-N-propyldibenzo[b,f][1,4]oxazepin-11-amine] |  |  | 2.0 | 56 µM | 112 µM |  | 
Clc1ccc2c(c1)C(NCCc1ccncc1)=Nc1ccccc1O2 [SW16, 2-chloro-N-(2-(pyridin-4-yl)ethyl)dibenzo[b,f][1,4]oxazepin-11-amine] |  |  | 2.8 | 18.5 µM | 51.1 µM |  | 
CCC(CC)NC1=Nc2ccccc2Oc2ccc(Cl)cc21 [SW17, 2-chloro-N-(pentan-3-yl)dibenzo[b,f][1,4]oxazepin-11-amine] |  |  | 2.6 | 28.5 µM | 72.8 µM |  | 
CC(C)CCNC1=Nc2ccccc2Oc2ccc(Cl)cc21 [SW18, 2-chloro-N-isopentyldibenzo[b,f][1,4]oxazepin-11-amine] |  |  | 1.3 | 55.1 µM | 70.1 µM |  | 

Compound | EC50 (S. Typhimurium 14028; intracellular Salmonella in infected RAW264.7 cells, read-out: EC50 (μM) S. Typhimurium 14028) | IC50 (RAW264.7; cytotoxicity, RAW264.7 cells, read-out: IC50 (μM) RAW264.7) | Selectivity ratio (IC50/EC50) (S. Typhimurium 14028) | EC50 (S. Typhimurium 14028; [1]) | IC50 (RAW264.7; [2]) | EC50 (S. Typhimurium 14028; [3]) | IC50 (RAW264.7; [4])
Fc1ccc(CCNC2=Nc3ccccc3Oc3ccc(Cl)cc32)cc1 [SW19, 2-chloro-N-(4-fluorophenethyl)dibenzo[b,f][1,4]oxazepin-11-amine] |  |  | 1.8 | 61.5 µM | 112 µM |  | 
Clc1ccc(CCNC2=Nc3ccccc3Oc3ccc(Cl)cc32)cc1 [SW20, 2-chloro-N-(4-chlorophenethyl)dibenzo[b,f][1,4]oxazepin-11-amine] |  |  | 2.0 | 45.1 µM | 91.6 µM |  | 
Clc1ccc2c(c1)C(NCCN1CCCCC1)=Nc1cccnc1N2 [SW21, 8-chloro-N-(2-(piperidin-1-yl)ethyl)-11H-benzo[e]pyrido[3,2-b][1,4]diazepin-6-amine] |  |  | 11.0 |  |  | 5.8 µM | 63.6 µM
Clc1ccc2c(c1)C(NCCCN1CCCC1)=Nc1ccccc1O2 [SW22, 2-chloro-N-(3-(pyrrolidin-1-yl)propyl)dibenzo[b,f][1,4]oxazepin-11-amine] |  |  | 14.8 | 1.1 µM | 16.3 µM |  | 
O=C1CCCN1CCCNC1=Nc2ccccc2Oc2ccc(Cl)cc21 [SW23, 1-(3-((2-chlorodibenzo[b,f][1,4]oxazepin-11-yl)amino)propyl)pyrrolidin-2-one] |  |  | >1.3 | > 90 µM | > 90 µM |  | 
O=C(CNC1=Nc2ccccc2Oc2ccc(Cl)cc21)N1CCCC1 [SW24, 2-((2-chlorodibenzo[b,f][1,4]oxazepin-11-yl)amino)-1-(pyrrolidin-1-yl)ethan-1-one] |  |  |  | > 90 µM | > 90 µM |  | 
CN1CCCC1CCNC1=Nc2cccnc2Nc2ccc(Cl)cc21 (stereo not shown) [SW25, 8-chloro-N-(2-(1-methylpyrrolidin-2-yl)ethyl)-11H-benzo[e]pyrido[3,2-b][1,4]diazepin-6-amine] |  |  | 26.2 |  |  | 3.3 µM | 85.5 µM
Clc1ccc2c(c1)C(NCCCN1CCCCC1)=Nc1ccccc1O2 [SW26, 2-chloro-N-(3-(piperidin-1-yl)propyl)dibenzo[b,f][1,4]oxazepin-11-amine] |  |  | 14.6 | 1.1 µM | 16.1 µM |  | 
CN(C)CCNC1=Nc2cccnc2Nc2ccc(Cl)cc21 [SW27, N1-(8-chloro-11H-benzo[e]pyrido[3,2-b][1,4]diazepin-6-yl)-N2,N2-dimeth ylethane-1,2-diamine] |  |  | >13.9 |  |  | 6.5 µM | > 90 µM
Clc1ccc2c(c1)C(NCCN1CCCC1)=Nc1cccnc1N2 [SW28, 8-chloro-N-(2-(pyrrolidin-1-yl)ethyl)-11H-benzo[e]pyrido[3,2-b][1,4]diazepin-6-amine] |  |  | 6.8 |  |  | 9.3 µM | 63.2 µM
Clc1ccc2c(c1)C(NCCCN1CCCC1)=Nc1cccnc1N2 [SW29, 8-chloro-N-(3-(pyrrolidin-1-yl)propyl)-11H-benzo[e]pyrido[3,2-b][1,4]diazepin-6-amine] |  |  | 18.8 |  |  | 5.3 µM | 101 µM
CN1CCN(CCCNC2=Nc3cccnc3Nc3ccc(Cl)cc32)CC1 [SW31, 8-chloro-N-(3-(4-methylpiperazin-1-yl)propyl)-11H-benzo[e]pyrido[3,2-b][1,4]diazepin-6-amine] |  |  | 18.7 |  |  | 7 µM | 129 µM
Clc1ccc2c(c1)C(NCCCN1CCCCC1)=Nc1cccnc1N2 [SW32, 8-chloro-N-(3-(piperidin-1-yl)propyl)-11H-benzo[e]pyrido[3,2-b][1,4]diazepin-6-amine] |  |  | 16.4 |  |  | 6.4 µM | 105 µM
c1ccc2c(c1)N=C(NCCCN1CCCC1)c1ccccc1N2 [SW33, N-(3-(pyrrolidin-1-yl)propyl)-5H-dibenzo[b,e][1,4]diazepin-11-amine] |  |  | 213.4 | 0.7 µM | 143 µM |  | 
c1ccc2c(c1)N=C(NCCN1CCCCC1)c1ccccc1N2 [SW35, N-(2-(piperidin-1-yl)ethyl)-5H-dibenzo[b,e][1,4]diazepin-11-amine] |  |  | 29.3 | 3.8 µM | 111 µM |  | 
Cc1cc2c(s1)Nc1ccccc1N=C2NCCN1CCCCC1 [SW38, 2-methyl-N-(2-(piperidin-1-yl)ethyl)-10H-benzo[b]thieno[2,3-e][1,4]diazepin-4-amine] |  |  | 22.4 | 1.6 µM | 36.5 µM |  | 
